The record followed here is patent US8129371B2, “Thienopyrimidine and pyrazolopyrimidine compounds and their use as mTOR kinase and PI3 kinase inhibitors” (Wyeth LLC, priority 2007, dated 2012).

In assay [1] the target is T1, Human mTOR (FLAG-TOR) (Homo sapiens, UniProt P42345).
T1 construct: FLAG
Description: Human mTOR kinase assay with purified enzyme, DELFIA format. Format: biochemical. In a few lines:
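Purified FLAG-mTOR in HEPES pH 7.4 buffer with 10 mM MnCl2 was preincubated with inhibitor and reacted 2 h at room temperature with His6-S6K substrate, then stopped with EDTA/EGTA. Phospho-T389 S6K detected by DELFIA with Eu-labelled antibody (40 ng/mL) after plate capture; inhibition computed from signal.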

Assay [2] deals with T2, PI3K (Homo sapiens, UniProt P42336).
T2 construct: PI3 Kinase α IC50; other: PI3 Kinase α; other: PI3 Kinase α isoform, fluorescence polarization
T2 sequence (P42336 whole entry, canonical isoform): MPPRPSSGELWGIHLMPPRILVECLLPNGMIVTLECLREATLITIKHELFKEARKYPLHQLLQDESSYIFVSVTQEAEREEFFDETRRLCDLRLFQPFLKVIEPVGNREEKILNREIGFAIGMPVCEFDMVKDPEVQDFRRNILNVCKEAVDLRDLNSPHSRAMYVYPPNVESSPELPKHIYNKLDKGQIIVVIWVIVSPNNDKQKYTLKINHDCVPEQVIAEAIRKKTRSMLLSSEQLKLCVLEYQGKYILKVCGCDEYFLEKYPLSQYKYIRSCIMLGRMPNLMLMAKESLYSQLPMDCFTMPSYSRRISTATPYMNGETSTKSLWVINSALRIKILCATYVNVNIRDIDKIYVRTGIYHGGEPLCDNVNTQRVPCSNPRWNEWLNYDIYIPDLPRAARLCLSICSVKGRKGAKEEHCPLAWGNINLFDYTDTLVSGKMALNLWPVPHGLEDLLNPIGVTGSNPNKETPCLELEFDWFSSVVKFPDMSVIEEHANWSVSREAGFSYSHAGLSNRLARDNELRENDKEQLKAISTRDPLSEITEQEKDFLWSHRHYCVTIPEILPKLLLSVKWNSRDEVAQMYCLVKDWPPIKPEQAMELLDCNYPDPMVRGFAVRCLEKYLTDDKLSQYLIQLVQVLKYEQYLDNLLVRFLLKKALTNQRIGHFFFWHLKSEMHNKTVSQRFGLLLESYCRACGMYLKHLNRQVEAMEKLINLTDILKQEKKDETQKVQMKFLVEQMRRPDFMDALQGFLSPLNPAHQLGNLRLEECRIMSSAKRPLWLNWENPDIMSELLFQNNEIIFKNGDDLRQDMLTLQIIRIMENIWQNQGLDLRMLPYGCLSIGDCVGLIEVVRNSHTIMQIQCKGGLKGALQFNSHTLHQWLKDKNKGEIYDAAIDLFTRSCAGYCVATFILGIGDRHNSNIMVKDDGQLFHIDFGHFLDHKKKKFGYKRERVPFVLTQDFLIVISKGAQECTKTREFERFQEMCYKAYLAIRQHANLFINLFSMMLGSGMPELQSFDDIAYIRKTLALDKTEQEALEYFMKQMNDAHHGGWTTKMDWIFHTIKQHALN
The assay is described as follows: Fluorescence polarization assay for PI3K. The class given is biochemical. Particulars: read-out: PI3 Kinase α IC50. In a few lines: (§1)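 PI3K was preincubated with compound (final DMSO 1%), and the reaction was started with PIP2/ATP substrate and run 30–60 min. It was stopped with a detector mix giving 10 nM red probe and 70 nM GST-GRP.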

In assay [3] the target is T3, PI3K (Homo sapiens, UniProt P48736).
T3 construct: PI3 Kinase γ IC50; other: PI3 Kinase γ; other: PI3 Kinase γ isoform, fluorescence polarization
T3 sequence (P48736 whole entry, canonical isoform): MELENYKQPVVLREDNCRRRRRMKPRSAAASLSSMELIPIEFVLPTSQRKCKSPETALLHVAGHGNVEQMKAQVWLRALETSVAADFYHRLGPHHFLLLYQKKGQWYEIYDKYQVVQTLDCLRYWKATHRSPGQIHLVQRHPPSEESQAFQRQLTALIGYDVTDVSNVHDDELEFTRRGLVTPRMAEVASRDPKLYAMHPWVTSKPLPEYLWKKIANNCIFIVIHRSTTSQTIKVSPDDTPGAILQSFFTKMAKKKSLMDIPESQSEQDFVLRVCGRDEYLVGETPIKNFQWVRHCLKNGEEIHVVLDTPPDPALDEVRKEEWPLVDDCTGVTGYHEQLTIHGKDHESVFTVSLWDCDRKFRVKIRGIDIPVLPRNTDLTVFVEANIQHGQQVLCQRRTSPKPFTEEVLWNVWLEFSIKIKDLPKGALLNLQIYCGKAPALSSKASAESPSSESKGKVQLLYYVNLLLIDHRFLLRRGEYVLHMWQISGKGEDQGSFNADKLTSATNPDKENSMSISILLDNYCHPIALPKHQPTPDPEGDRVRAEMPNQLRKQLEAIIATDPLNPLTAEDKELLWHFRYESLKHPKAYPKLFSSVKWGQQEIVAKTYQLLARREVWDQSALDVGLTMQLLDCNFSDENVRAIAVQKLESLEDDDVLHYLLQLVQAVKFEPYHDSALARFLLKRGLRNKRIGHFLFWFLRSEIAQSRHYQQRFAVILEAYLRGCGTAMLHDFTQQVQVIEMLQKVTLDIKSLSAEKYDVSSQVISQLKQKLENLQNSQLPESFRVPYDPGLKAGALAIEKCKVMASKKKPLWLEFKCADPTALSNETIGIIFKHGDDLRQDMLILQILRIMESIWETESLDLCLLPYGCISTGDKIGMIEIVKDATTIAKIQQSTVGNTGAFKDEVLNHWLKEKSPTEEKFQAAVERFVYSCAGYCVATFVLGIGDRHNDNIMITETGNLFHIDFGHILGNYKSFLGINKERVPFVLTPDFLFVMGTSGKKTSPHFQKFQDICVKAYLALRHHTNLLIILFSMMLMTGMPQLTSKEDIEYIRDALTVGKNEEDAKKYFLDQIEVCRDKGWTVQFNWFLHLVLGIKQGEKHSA
The assay is described as follows: Fluorescence polarization assay for PI3K. Format: biochemical. The following applies: read-out: PI3 Kinase γ IC50. In a few lines:
as §1

Assay [4] deals with prostate line LNCap. Description: In vitro cell culture growth assay (MTS), LNCap. Particulars: Homo sapiens, LNCaP, 72 h, LNCap cells, three days after drug treatment. Format: cell-based. In a few lines:
(§2)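 The readout was MTS dye metabolism at 490 nm, taken after 3-day drug exposure that began the day after seeding. Growth was expressed as percent of vehicle-treated wells in the same plate.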

Assay [5] concerns breast line MDA468. The assay is described as follows: In vitro cell culture growth assay (MTS), MDA468. Particulars: Homo sapiens, 72 h, MDA468 cells, three days after drug treatment. The class given is cell-based. In a few lines: as §2
[6] abbreviates: purified human mTOR enzyme, DELFIA format.
Where [7] appears, read: PI3 Kinase α isoform, fluorescence polarization.
The mark [8] stands for this setting: PI3 Kinase γ isoform, fluorescence polarization.

The structures appear in SMILES notation. Like-named read-outs stand apart in the source and are kept apart here.

Turning to `CN(C)CCOc1ccc(NC(=O)Nc2ccc(-c3nc(N4CC5CCC(C4)O5)c4cnn(CCF)c4n3)cc2)cc1` [Example 243, 1-{4-[2-(dimethylamino)ethoxy]phenyl}-3-{4-[1-(2-fluoroethyl)-4-(8-oxa-3-azabicyclo[3.2.1]oct-3-yl)-1H-pyrazolo[3,4-d]pyrimidin-6-yl]phenyl}urea], the IC50 came out at 0.835 nM in assay [1]; 116 nM in assay [2] (PI3 Kinase α); 1300 nM in assay [3] (PI3 Kinase γ); 4 nM in assay [4]; 9 nM in assay [5].
As to `CN1CCN(Cc2cc3nc(-c4ccc(NC(=O)NN(C)C)cc4)nc(N4CC5CCC(C4)O5)c3s2)CC1` [Example 425, 2,2-dimethyl-N-(4-{6-[(4-methylpiperazin-1-yl)methyl]-4-(8-oxa-3-azabicyclo[3.2.1]oct-3-yl)thieno[3,2-d]pyrimidin-2-yl}phenyl)hydrazinecarboxamide], the IC50 in assay [1] (setting [6]) is 545 nM; in assay [2] (setting [7]) it was 5530 nM; in assay [3] (setting [8]), more than 10000 nM; in assay [4], 19000 nM; in assay [5], 23000 nM.
As for `O=C1CCC(n2ncc3c(N4CC5CCC(C4)O5)nc(-c4ccc(NC(=O)OCCO)cc4)nc32)CC1` [Example 211, 2-hydroxyethyl {4-[4-(8-oxa-3-azabicyclo[3.2.1]oct-3-yl)-1-(4-oxocyclohexyl)-1H-pyrazolo[3,4-d]pyrimidin-6-yl]phenyl}carbamate], the IC50 in assay [1] was 0.885 nM; in assay [2] (PI3 Kinase α) it was 2120 nM; in assay [3] (PI3 Kinase γ), more than 10000 nM; in assay [4], 17 nM; in assay [5], 120 nM.
Consider `COCC(COC)n1ncc2c(N3CC4CCC(C3)O4)nc(-c3ccc(NC(=O)NC4CC4)cc3)nc21` [Example 321, 1-cyclopropyl-3-(4-{1-[2-methoxy-1-(methoxymethyl)ethyl]-4-(8-oxa-3-azabicyclo[3.2.1]oct-3-yl)-1H-pyrazolo[3,4-d]pyrimidin-6-yl}phenyl)urea], for which the IC50 was 10.4 nM in assay [1] (setting [6]); 3810 nM in assay [2] (setting [7]); more than 10000 nM in assay [3] (setting [8]); 170 nM in assay [4]; 1050 nM in assay [5].
Regarding `CCNC(=O)Nc1ccc(-c2nc(N3CC4CCC(C3)O4)c3cnn(C4CCN(C(=O)OC(C)C)CC4)c3n2)cc1` [Example 67, isopropyl 4-[6-{4-[(ethylcarbamoyl)amino]phenyl}-4-(8-oxa-3-azabicyclo[3.2.1]oct-3-yl)-1H-pyrazolo[3,4-d]pyrimidin-1-yl]piperidine-1-carboxylate], the IC50 was 0.23 nM in assay [1]; 2460 nM in assay [2] (PI3 Kinase α); 9500 nM in assay [3] (PI3 Kinase γ); 17 nM in assay [4]; 150 nM in assay [5].
The like results for `OCCNc1ccc(-c2nc(N3CC4CCC(C3)O4)c3cnn(C4CCC5(CC4)OCCO5)c3n2)cc1` [Example 132, 2-({4-[1-(1,4-dioxaspiro[4.5]dec-8-yl)-4-(8-oxa-3-azabicyclo[3.2.1]oct-3-yl)-1H-pyrazolo[3,4-d]pyrimidin-6-yl]phenyl}amino)ethanol] were, in that order, 15.5 nM, more than 10000 nM, more than 10000 nM, 580 nM and 5000 nM.
With `O=C(Nc1ccc(-c2nc(N3CC4CCC(C3)O4)c3cnn([C@H]4CC[C@H](O)CC4)c3n2)cc1)NC1CC1` (relative stereo) [Example 403, 1-cyclopropyl-3-{4-[1-(trans-4-hydroxycyclohexyl)-4-(8-oxa-3-azabicyclo[3.2.1]oct-3-yl)-1H-pyrazolo[3,4-d]pyrimidin-6-yl]phenyl}urea], the IC50 in assay [1] (setting [6]) was 0.4 nM; in assay [2] (setting [7]), 3630 nM; in assay [3] (setting [8]), more than 10000 nM; in assay [4], 5 nM; in assay [5], 180 nM.
Consider `O=C(Nc1ccc(-c2nc(N3CC4CCC(C3)O4)c3cnn(C4CCC5(CC4)OCCO5)c3n2)cc1)OCCCO` [Example 122, 3-hydroxypropyl {4-[1-(1,4-dioxaspiro[4.5]dec-8-yl)-4-(8-oxa-3-azabicyclo[3.2.1]oct-3-yl)-1H-pyrazolo[3,4-d]pyrimidin-6-yl]phenyl}carbamate], for which the 50% inhibitory concentration (IC50) in assay [1] is 4 nM; in assay [2] (PI3 Kinase α) it was more than 10000 nM; in assay [3] (PI3 Kinase γ), more than 10000 nM; in assay [4], 190 nM; in assay [5], 1800 nM.
Turning to `CN1CCN(c2ccc(NC(=O)Nc3ccc(-c4nc(N5C6CCC5COC6)c5cnn(CC(F)(F)F)c5n4)cc3)cc2)CC1` [Example 270, 1-[4-(4-methylpiperazin-1-yl)phenyl]-3-{4-[4-(3-oxa-8-azabicyclo[3.2.1]oct-8-yl)-1-(2,2,2-trifluoroethyl)-1H-pyrazolo[3,4-d]pyrimidin-6-yl]phenyl}urea], the half-maximal inhibitory concentration (IC50) in assay [1] was 0.52 nM; in assay [2] (PI3 Kinase α), 371 nM; in assay [3] (PI3 Kinase γ) it was 9500 nM; in assay [4], less than 1 nM; in assay [5], 1 nM.
The like results for `CN(C)CCn1ncc2c(N3CC4CCC(C3)O4)nc(-c3ccc(NC(=O)Nc4ccc(N5CCN(C)CC5)cc4)cc3)nc21` [Example 159, 1-(4-{1-[2-(dimethylamino)ethyl]-4-(8-oxa-3-azabicyclo[3.2.1]oct-3-yl)-1H-pyrazolo[3,4-d]pyrimidin-6-yl}phenyl)-3-[4-(4-methylpiperazin-1-yl)phenyl]urea] were, in that order, 4.85 nM, 188 nM, 3820 nM, 18 nM and 90 nM.
For `COC(=O)Nc1ccc(-c2nc(N3CC4CCC(C3)O4)c3cnn(CCN(C)C)c3n2)cc1` [Example 154, methyl (4-{1-[2-(dimethylamino)ethyl]-4-(8-oxa-3-azabicyclo[3.2.1]oct-3-yl)-1H-pyrazolo[3,4-d]pyrimidin-6-yl}phenyl)carbamate], the IC50 in assay [1] was 85 nM; in assay [2] (PI3 Kinase α), 4280 nM; in assay [3] (PI3 Kinase γ), more than 10000 nM; in assay [4], 2900 nM; in assay [5], 19000 nM.
Consider `CCNC(=O)Nc1ccc(-c2nc(N3CC4CCC(C3)O4)c3cnn(CCO)c3n2)cc1` [Example 194, 1-ethyl-3-{4-[1-(2-hydroxyethyl)-4-(8-oxa-3-azabicyclo[3.2.1]oct-3-yl)-1H-pyrazolo[3,4-d]pyrimidin-6-yl]phenyl}urea], for which the IC50 in assay [1] was 2.7 nM; in assay [2] (PI3 Kinase α), 1500 nM; in assay [3] (PI3 Kinase γ), more than 10000 nM; in assay [4], 280 nM; in assay [5], 800 nM.
The like results for `O=C(NCCF)Nc1ccc(-c2nc(N3CC4CCC(C3)O4)c3cnn(C4CCN(Cc5cccnc5)CC4)c3n2)cc1` [Example 16, 1-(2-fluoroethyl)-3-(4-{4-(8-oxa-3-azabicyclo[3.2.1]oct-3-yl)-1-[1-(pyridin-3-ylmethyl)piperidin-4-yl]-1H-pyrazolo[3,4-d]pyrimidin-6-yl}phenyl)urea] were, in that order, 0.5 nM, 2630 nM, more than 10000 nM, 6 nM and 80 nM.
For the compound `O=C(Nc1ccc(-c2nc(N3CC4CCC(C3)O4)c3cnn(C4CCN(CC(F)(F)F)CC4)c3n2)cc1)OCCO` [Example 209, 2-hydroxyethyl (4-{4-(8-oxa-3-azabicyclo[3.2.1]oct-3-yl)-1-[1-(2,2,2-trifluoroethyl)piperidin-4-yl]-1H-pyrazolo[3,4-d]pyrimidin-6-yl}phenyl)carbamate], the IC50 in assay [1] was found to be 2.25 nM; in assay [2] (PI3 Kinase α), 3710 nM; in assay [3] (PI3 Kinase γ) it was 4950 nM; in assay [4], 40 nM; in assay [5], 600 nM.
